Measurements published in patent US7282508B2, “Substituted 4-phenyl-4-(1H-imidazol-2-yl)-piperidine derivatives and their use as selective non-peptide delta opioid agonists” (Janssen Pharmaceutica N.V., priority 2001, dated 2007).

Q: Which melting point does the source give for `CCN/C(=N/C#N)N1CCC(c2ccccc2)(c2nccn2Cc2ccccc2)CC1` [Compound 4] here?
A: The melting point was 84.2 °C.

Q: For `CCOC(=O)N1CCC(c2ccccc2)(c2nccn2Cc2ccc(C(=O)O)cc2)CC1` [Compound 8], which melting point is on record?
A: The melting point was 251.6 °C.

Q: For `O=C(c1ccccc1)N1CCC(c2ccccc2)(c2nccn2Cc2ccccc2)CC1` [Compound 2], which melting point is on record?
A: Its melting point is 122.7 °C.

Q: For `CCOC(=O)N1CCC(c2ccccc2)(c2nccn2Cc2ccc(C(=O)OC)cc2)CC1` [Compound 3], which melting point is on record?
A: The melting point was 149.1 °C.
